Experimental data as given in patent US20160367529A1, “DEBILITY PREVENTATIVE” (AJINOMOTO CO., INC., priority 2014, published 2016).

Experiment: Body weight of low protein model rat fed amino acid added diet
Assay type: in vivo
Conditions: vs 1% C group
Procedure: Using 10-week-old CD(SD) male rats, they were raised on a 1 wt % casein feed obtained by reducing the protein in standard purified diet AIN-93G (manufactured by Oriental yeast Co., Ltd.) (Table 14). The animal fed on the 1 wt % casein diet for 28 days (4 weeks) was used as a low protein model, and an influence of amino acid administration was evaluated. 10-week-old CD(SD) male rats were divided into the groups shown in Table 17, casein 20 wt % (20% C group) or 1 wt % feed was fed for 28 days according to the schedule shown in FIG. 1, and the body weight of rats thereafter fed with a 1 wt % casein diet (1% C group),and further added with each amino acid shown in Table 16 (4AA addition group (4AA group); a group of 4AA less tryptophan (−Trp group); a group of 4AA less methionine (−Met group); and a group of 4AA less threonine (−Thr group)) was measured. 10-week-old CD(SD) male rats were divided into the groups shown in Table 18, casein 20 wt % (20% C group) or 1 wt % feed was fed for 28 days according to the schedule shown in FIG. 1, and the body weight of rats thereafter fed with a 1 wt % casein diet (1% C group), and further added with the amino acid shown in Table 16 (4AA addition group (4AA group); an isoleucine and threonine combined use group (Ile, Thr group); an isoleucine addition group (Ile group); and the a threonine addition group (Thr group)) was measured. 10-week-old CD(SD) male rats were divided into the groups shown in Table 19, casein 20 wt % (20% C group) or 1 wt % feed was fed for 28 days according to the schedule shown in FIG. 1, and the body weight and weight of viscera-isolated carcass of rats thereafter fed for 14 days with a 1 wt % casein diet (1% C group), and further added with 1.15 g of the amino acid shown in Table 20 per 1 kg feed (4AA addition group (4AA group); a group of essential and non-essential amino acids addition group less 4AA (ALL-4AA group); essential amino acid addition group less 4AA (EAA-4AA group), non-essential amino acid addition group (NEAA group); and glycine addition group (Gly group)) was measured. […]

[1] = Experimental Example 4, 14 days after feeding amino acid added 1 wt % casein diet, FIG. 5

SMILES | body weight (ratio to day 0) (Experimental Example 5, 14 days after feeding diet with 1.15 g amino acid per 1 kg feed, FIG. 6) | body weight (ratio to day 0) [1]
NCC(=O)O [Gly, glycine] | not recovered | 
CC[C@H](C)[C@H](N)C(=O)O [Ile, isoleucine] |  | increase of the body weight was weakened
C[C@@H](O)[C@H](N)C(=O)O [Thr, threonine] |  | significantly recovered
